In patent US10851102B2, “Imidazole and triazole containing bicyclic compounds as JAK inhibitors” (THERAVANCE BIOPHARMA R&D IP, LLC, priority 2019, dated 2020):

What was measured:
JAK1 = JAK1 (Homo sapiens (Human), UniProt P23458); experiment: Biochemical JAK and Tyk2 kinase assays (LanthaScreen): JAK1; details: 1 h pre-incubation, ATP at Km; pIC50 converted to pKi by Cheng-Prusoff
Description: (§1) Assay 1: Biochemical JAK and Tyk2 Kinase Assays
(§2) A panel of four LanthaScreen JAK biochemical assays (JAK1, 2, 3 and Tyk2) were carried in a common kinase reaction buffer (50 mM HEPES, pH 7.5, 0.01% Brij-35, 10 mM MgCl2, and 1 mM EGTA). Recombinant GST-tagged JAK enzymes and a GFP-tagged STAT1 peptide substrate were obtained from Life Technologies.
(§3) Serially or discretely diluted compounds were pre-incubated with each of the four JAK enzymes and the substrate in white 384-well microplates (Corning) at ambient temperature for 1 h. ATP was subsequently added to initiate the kinase reactions in 10 μL total volume, with 1% DMSO. […] Kinase reactions were allowed to proceed for 1 hour at ambient temperature before a 10 μL preparation of EDTA (10 mM final concentration) and Tb-anti-pSTAT1 (pTyr701) antibody (Life Technologies, 2 nM final concentration) in TR-FRET dilution buffer (Life Technologies) was added. The plates were allowed to incubate at ambient temperature for 1 h before being read on the EnVision reader (Perkin Elmer). Emission ratio signals (520 nm/495 nm) were recorded and utilized to calculate the percent inhibition values based on DMSO and background controls.
(§4) For dose-response analysis, percent inhibition data were plotted vs. compound concentrations, and IC50 values were determined from a 4-parameter robust fit model with the Prism software (GraphPad Software). Results were expressed as pIC50 (negative logarithm of IC50) and subsequently converted to pKi (negative logarithm of dissociation constant, Ki) using the Cheng-Prusoff equation.

JAK2 = JAK2 (Homo sapiens (Human), UniProt O60674); experiment: Biochemical JAK and Tyk2 kinase assays (LanthaScreen): JAK2; details: 1 h pre-incubation, ATP at Km, pIC50 converted to pKi by Cheng-Prusoff
Chain of JAK2 (O60674 whole entry): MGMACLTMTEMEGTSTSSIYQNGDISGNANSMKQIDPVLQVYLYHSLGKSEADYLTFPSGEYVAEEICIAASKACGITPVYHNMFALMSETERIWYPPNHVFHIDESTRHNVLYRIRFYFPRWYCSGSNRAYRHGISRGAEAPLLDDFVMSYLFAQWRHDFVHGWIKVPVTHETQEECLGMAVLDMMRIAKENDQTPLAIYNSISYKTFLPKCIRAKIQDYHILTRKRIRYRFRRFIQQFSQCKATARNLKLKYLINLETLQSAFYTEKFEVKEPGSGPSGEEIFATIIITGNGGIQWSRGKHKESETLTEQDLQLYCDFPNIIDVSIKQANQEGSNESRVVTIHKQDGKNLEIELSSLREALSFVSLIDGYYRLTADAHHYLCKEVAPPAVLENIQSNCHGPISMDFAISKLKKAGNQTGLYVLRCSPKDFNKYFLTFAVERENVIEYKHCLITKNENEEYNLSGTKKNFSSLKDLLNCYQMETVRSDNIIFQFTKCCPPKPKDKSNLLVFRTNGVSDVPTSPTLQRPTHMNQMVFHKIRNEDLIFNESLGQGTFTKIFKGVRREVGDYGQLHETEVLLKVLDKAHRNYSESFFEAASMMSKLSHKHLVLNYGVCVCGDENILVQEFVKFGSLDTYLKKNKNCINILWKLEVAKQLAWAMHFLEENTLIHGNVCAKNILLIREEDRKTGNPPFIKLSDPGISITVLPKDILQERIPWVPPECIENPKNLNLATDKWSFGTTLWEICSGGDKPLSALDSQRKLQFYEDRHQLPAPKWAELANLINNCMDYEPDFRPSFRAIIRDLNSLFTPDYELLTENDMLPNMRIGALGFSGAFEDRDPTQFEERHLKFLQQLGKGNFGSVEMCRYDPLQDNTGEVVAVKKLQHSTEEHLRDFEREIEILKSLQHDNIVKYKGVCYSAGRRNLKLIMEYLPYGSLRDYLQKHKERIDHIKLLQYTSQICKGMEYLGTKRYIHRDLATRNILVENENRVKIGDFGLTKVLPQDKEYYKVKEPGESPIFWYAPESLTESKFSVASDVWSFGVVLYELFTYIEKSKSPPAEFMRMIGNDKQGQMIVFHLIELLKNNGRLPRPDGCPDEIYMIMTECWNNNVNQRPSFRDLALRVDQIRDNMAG
Description: as §1, §2, §3, §4

JAK3 = JAK3 (Homo sapiens (Human), UniProt P52333); experiment: Biochemical JAK and Tyk2 kinase assays (LanthaScreen): JAK3; details: for JAK 3 (pKi) / Ki: 1 h pre-incubation, ATP at Km, pIC50 converted to pKi by Cheng-Prusoff; for JAK3 (pKi)-JAK1 (pKi): difference of pKi values, selectivity JAK3 over JAK1; for Ki: read-out: JAK 3 (pKi) (converted)
Chain of JAK3 (P52333 whole entry): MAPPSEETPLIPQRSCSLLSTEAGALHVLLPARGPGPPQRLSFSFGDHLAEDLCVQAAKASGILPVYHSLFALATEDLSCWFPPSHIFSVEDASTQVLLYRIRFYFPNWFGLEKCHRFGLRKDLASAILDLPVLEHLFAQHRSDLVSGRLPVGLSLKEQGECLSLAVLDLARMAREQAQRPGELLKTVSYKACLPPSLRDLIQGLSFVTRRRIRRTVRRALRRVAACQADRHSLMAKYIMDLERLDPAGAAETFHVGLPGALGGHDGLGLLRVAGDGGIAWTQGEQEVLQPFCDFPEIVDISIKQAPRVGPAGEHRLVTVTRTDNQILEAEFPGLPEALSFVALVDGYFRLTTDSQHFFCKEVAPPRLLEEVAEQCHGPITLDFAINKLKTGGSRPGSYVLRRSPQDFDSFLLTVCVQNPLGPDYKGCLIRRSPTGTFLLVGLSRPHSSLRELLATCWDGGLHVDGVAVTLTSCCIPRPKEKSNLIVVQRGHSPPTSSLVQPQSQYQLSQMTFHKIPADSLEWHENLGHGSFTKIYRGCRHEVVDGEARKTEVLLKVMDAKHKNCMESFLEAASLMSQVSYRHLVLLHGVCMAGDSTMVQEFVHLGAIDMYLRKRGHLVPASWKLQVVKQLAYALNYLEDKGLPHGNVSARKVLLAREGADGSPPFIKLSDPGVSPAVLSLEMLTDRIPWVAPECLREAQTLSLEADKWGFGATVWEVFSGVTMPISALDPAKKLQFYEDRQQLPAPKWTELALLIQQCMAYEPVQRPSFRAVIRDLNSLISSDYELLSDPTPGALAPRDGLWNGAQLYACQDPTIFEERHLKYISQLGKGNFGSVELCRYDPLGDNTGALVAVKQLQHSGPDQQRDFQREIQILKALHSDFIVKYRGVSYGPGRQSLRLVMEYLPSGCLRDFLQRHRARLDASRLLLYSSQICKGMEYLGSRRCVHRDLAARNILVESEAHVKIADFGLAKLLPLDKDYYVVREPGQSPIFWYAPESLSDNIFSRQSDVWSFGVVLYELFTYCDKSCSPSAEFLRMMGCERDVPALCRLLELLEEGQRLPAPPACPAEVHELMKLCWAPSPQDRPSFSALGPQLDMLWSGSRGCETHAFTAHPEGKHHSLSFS
Description: as §1, §2, §3, §4

Tyk2 = Tyk2 (Homo sapiens (Human), UniProt P29597); experiment: Biochemical JAK and Tyk2 kinase assays (LanthaScreen): Tyk2; details: 1 h pre-incubation, ATP at Km; pIC50 converted to pKi by Cheng-Prusoff
Chain of Tyk2 (P29597 whole entry): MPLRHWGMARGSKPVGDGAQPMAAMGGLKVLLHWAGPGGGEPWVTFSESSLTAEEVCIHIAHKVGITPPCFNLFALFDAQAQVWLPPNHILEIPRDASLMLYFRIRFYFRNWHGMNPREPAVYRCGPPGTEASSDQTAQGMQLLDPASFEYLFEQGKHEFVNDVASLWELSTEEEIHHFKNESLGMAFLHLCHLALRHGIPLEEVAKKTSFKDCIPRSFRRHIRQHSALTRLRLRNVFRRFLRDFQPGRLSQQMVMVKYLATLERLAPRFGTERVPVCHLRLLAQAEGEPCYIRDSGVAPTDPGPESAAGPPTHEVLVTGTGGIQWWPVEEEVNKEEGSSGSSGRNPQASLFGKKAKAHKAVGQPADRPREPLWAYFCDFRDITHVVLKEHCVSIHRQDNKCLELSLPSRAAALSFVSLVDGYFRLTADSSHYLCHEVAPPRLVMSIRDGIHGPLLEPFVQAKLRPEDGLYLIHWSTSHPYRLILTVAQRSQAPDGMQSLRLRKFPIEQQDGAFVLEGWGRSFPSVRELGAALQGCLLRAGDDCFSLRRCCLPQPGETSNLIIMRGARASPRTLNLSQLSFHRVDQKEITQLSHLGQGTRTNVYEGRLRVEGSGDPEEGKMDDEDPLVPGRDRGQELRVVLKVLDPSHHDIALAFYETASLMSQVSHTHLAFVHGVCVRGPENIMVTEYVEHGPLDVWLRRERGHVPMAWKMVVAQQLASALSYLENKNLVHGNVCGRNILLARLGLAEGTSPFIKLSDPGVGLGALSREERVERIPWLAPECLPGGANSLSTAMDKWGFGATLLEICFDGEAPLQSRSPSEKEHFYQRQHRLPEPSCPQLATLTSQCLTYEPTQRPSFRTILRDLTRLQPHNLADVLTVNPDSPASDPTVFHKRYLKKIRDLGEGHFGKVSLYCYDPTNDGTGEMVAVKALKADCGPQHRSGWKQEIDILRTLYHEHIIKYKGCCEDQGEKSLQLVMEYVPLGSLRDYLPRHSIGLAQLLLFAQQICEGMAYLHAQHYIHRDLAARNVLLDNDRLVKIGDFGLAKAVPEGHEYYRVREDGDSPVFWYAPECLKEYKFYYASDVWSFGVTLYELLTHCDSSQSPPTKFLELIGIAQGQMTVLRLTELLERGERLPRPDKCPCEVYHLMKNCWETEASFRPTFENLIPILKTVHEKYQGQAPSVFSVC
Description: as §1, §2, §3, §4

[1] = test system: IL-2 stimulated pSTAT5 in Tall-1 T cells (JAK3); experiment: Cellular JAK3 potency assay: inhibition of IL-2 stimulated pSTAT5 in Tall-1 T cells; format: cell-based; details: IL-2 300 ng/ml, pSTAT5 AlphaLisa, Tall-1 human T cell line; read-out: Tall-1 (pIC50) (converted)
Description: Assay 2: Cellular JAK3 Potency Assay: Inhibition of IL-2 Stimulated pSTAT5 in Tall-1 T Cells
The potency of test compounds for inhibition of interleukin-2 (IL-2) stimulated STATS phosphorylation was measured in the Tall-1 human T cell line (DSMZ) using AlphaLisa. Because IL-2 signals through JAK3, this assay provides a measure of JAK3 cellular potency.
(§5) Phosphorylated STATS was measured via the AlphaLISA SureFire Ultra pSTAT5 (Tyr694/699) kit (PerkinElmer).
Human T cells from the Tall-1 cell line were cultured in a 37° C., 5% CO2 humidified incubator in RPMI (Life Technologies) supplemented with 15% Heat Inactivated Fetal Bovine Serum (FBS, Life Technologies), 2 mM Glutamax (Life Technologies), 25 mM HEPES (Life Technologies) and 1× Pen/Strep (Life Technologies). Compounds were serially diluted in DMSO and dispensed acoustically to empty wells. Assay media (phenol red-free DMEM (Life Technologies) supplemented with 10% FBS (ATCC)) was dispensed (4 μL/well) and plates shaken at 900 rpm for 10 mins. Cells were seeded at 45,000 cells/well in assay media (4 μL/well), and incubated at 37° C., 5% CO2 for 1 hour, followed by the addition of IL-2 (R&D Systems; final concentration 300 ng/ml) in pre-warmed assay media ([…]) for 30 minutes. After cytokine stimulation, cells were lysed with 6 ul of 3× AlphaLisa Lysis Buffer (PerkinElmer) containing 1× PhosStop and Complete tablets (Roche). The lysate was shaken at 900 rpm for 10 minutes at room temperature (RT). Phosphorylated STATS was measured via the pSTAT5 AlphaLisa kit (PerkinElmer). Freshly prepared acceptor bead mixture was dispensed onto lysate (5 μL) under green filtered <100 lux light. Plates were shaken at 900 rpm for 2 mins, briefly spun down, and incubated for 2 hrs at RT in the dark. Donor beads were dispensed (5 μL) under green filtered <100 lux light. Plates were shaken at 900 rpm for 2 minutes, briefly spun down, and incubated overnight at RT in the dark. Luminescence was measured with excitation at 689 nm and emission at 570 nm using an EnVision plate reader (PerkinElmer) under green filtered <100 lux light.
(§6) To determine the inhibitory potency of test compounds in response to IL-2, the average emission intensity of beads bound to pSTAT5 was measured in a human T cell line. IC50 values were determined from analysis of the inhibition curves of signal intensity versus compound concentration. Data are expressed as pIC50 (negative decadic logarithm IC50) values (mean±standard deviation).

[2] = test system: IL-2 stimulated pSTAT5 in CD4+ T cells isolated from murine splenocytes (JAK3); experiment: Inhibition of IL-2 stimulated pSTAT5 in CD4+ T cells isolated from murine splenocytes; format: cell-based; details: Mus musculus, IL-2 7 ng/ml, read-out: pIC50, inhibition of IL-2 stimulated pSTAT5 (converted)
Description: Assay 3: Inhibition of IL-2 Stimulated pSTAT5 in CD4+ T Cells Isolated from Murine Splenocytes
The potency of test compounds for inhibition of interleukin-2 (IL-2) stimulated STATS phosphorylation was measured in the CD4+ T cells isolated from murine splenocytes using AlphaLisa. Because IL-2 signals through JAK3, this assay provides a measure of JAK3 cellular potency in mouse.
as §5
CD4+ T cells were isolated from murine splenocytes via negative selection on a magnetic column (Miltnyi Biotec) and re-suspended in assay media (phenol red-free DMEM (Life Technologies) supplemented with 10% FBS (ATCC)). Cells were seeded at 50,000 cells/well in assay media (2 μL/well). Compounds were serially diluted in DMSO and diluted to 2× final concentration in assay media. Compound was added (4 μl/well) and the cells incubated at 37° C., 5% CO2 for 1 hour, followed by the addition of IL-2 (R&D Systems; final concentration 7 ng/ml) in pre-warmed assay media (2 μL) for 30 minutes. After cytokine stimulation, cells were lysed with 2 μl of 5× AlphaLisa Lysis Buffer (PerkinElmer). The lysate was shaken at 900 rpm for 10 minutes at room temperature (RT). Phosphorylated STATS was measured via the pSTAT5 AlphaLisa kit (PerkinElmer). Freshly prepared acceptor bead mixture was dispensed onto lysate (5 ul) under green filtered <100 lux light. Plates were shaken at 900 rpm for 2 mins, briefly spun down, and incubated for 2 hrs at RT in the dark. Donor beads were dispensed (5 μl) under green filtered <100 lux light. Plates were shaken at 900 rpm for 2 mins, briefly spun down, and incubated overnight at RT in the dark. Luminescence was measured with excitation at 689 nm and emission at 570 nm using an EnVision plate reader (PerkinElmer) under green filtered <100 lux light.
as §6, with “pSTATS” for “pSTAT5”, “primary CD4+” for “a human”, “cells isolated from murine splenocytes.” for “cell line.”, “vs” for “versus”

Caco-2 cell monolayers = experiment: Caco-2 permeation assay; format: in vitro ADME, human; details: 5 μM, A to B, + Verapamil 25 μM, 120 minutes
Text: Assay 5: Caco-2 Permeation Assay

Chain of JAK1 (P23458 whole entry): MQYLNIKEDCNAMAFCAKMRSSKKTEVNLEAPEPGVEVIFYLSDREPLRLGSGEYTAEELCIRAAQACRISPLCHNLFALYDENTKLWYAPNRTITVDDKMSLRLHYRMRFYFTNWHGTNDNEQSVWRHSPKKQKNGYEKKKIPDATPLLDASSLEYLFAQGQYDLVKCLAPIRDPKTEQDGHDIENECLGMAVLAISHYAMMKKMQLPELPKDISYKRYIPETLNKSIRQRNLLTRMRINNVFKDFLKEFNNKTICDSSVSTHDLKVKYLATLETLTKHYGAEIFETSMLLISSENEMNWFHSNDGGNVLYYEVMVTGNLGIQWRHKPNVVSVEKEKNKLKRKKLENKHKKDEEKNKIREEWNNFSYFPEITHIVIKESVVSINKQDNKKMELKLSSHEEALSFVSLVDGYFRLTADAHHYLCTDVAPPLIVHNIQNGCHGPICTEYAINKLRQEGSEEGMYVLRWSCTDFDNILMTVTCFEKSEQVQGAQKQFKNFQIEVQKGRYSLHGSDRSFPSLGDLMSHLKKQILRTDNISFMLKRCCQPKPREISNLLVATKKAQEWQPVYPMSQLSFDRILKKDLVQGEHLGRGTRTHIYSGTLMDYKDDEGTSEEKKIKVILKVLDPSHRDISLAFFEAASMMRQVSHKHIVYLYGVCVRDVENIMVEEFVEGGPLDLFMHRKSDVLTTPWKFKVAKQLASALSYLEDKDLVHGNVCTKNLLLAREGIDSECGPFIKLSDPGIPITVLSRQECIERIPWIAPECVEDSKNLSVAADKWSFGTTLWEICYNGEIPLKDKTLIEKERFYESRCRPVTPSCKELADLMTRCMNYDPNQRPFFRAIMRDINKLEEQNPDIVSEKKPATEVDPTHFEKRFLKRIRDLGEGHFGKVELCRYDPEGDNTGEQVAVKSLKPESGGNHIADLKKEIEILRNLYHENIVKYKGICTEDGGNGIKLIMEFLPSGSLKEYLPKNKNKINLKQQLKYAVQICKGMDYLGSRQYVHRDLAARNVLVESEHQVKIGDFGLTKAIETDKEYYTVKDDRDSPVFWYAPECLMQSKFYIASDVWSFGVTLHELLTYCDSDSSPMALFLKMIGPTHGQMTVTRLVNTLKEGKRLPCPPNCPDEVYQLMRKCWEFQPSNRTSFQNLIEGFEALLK

| Structure (SMILES) | JAK 1 (pKi) (JAK1) | JAK 2 (pKi) (JAK2) | JAK 3 (pKi) (JAK3) | JAK3 (pKi)-JAK1 (pKi) (JAK3) | Tyk 2 (pKi) (Tyk2) | IC50 [1] | IC50 [2] | Caco Kp 10^−6 cm/sec (Caco-2 cell monolayers) | Ki (JAK3) | Ki (JAK2; read-out: JAK 2 (pKi) (converted)) |
| --- | --- | --- | --- | --- | --- | --- | --- | --- | --- | --- |
| C=CC(=O)N1CC(COc2cc(-c3cc(F)c(O)c(Cl)c3)cn3cncc23)C1 [Example 31] | E (E represents a pKi value of 7 or below (Ki of 100 nM or above)) | E (E represents a pKi value of 7 or below (Ki of 100 nM or above)) | A (A represents a pKi value≥10 (Ki≤0.1 nM)) | A (A represents a value of 3 or above) | E (E represents a pKi value of 7 or below (Ki of 100 nM or above)) | 31.6 to 200 nM | < 1000 nM | A (A represents a value below 5×10^−6 cm/sec) |  |  |
| C=CC(=O)N1CC(COc2cc(-c3ccc(O)c(F)c3F)cn3cncc23)C1 [Example 8, 1-(3-(((6-(2,3-difluoro-4-hydroxyphenyl)imidazo[1,5-a]pyridin-8-yl)oxy)methyl)azetidin-1-yl)prop-2-en-1-one] | E (E represents a pKi value of 7 or below (Ki of 100 nM or above)) | E (E represents a pKi value of 7 or below (Ki of 100 nM or above)) | A (A represents a pKi value≥10 (Ki≤0.1 nM)) | A (A represents a value of 3 or above) | E (E represents a pKi value of 7 or below (Ki of 100 nM or above)) | 31.6 to 200 nM | < 1000 nM | B (B represents a value between 5×10^−6 and 10×10^−6 cm/sec) |  |  |
| C=CC(=O)N1CC(C(C)(C)Oc2cc(-c3ccc(O)cc3)cn3cncc23)C1 [Example 28] | E (E represents a pKi value of 7 or below (Ki of 100 nM or above)) | E (E represents a pKi value of 7 or below (Ki of 100 nM or above)) | A (A represents a pKi value≥10 (Ki≤0.1 nM)) | A (A represents a value of 3 or above) | E (E represents a pKi value of 7 or below (Ki of 100 nM or above)) | 31.6 to 200 nM | < 1000 nM | A (A represents a value below 5×10^−6 cm/sec) |  |  |
| C=CC(=O)N1CC(COc2cc(-c3cc(Cl)c(O)c(OC)c3)cn3cncc23)C1 [Example 9, 1-(3-(((6-(3-chloro-4-hydroxy-5-methoxyphenyl)imidazo[1,5-a]pyridin-8-yl)oxy)methyl)azetidin-1-yl)prop-2-en-1-one] | E (E represents a pKi value of 7 or below (Ki of 100 nM or above)) | E (E represents a pKi value of 7 or below (Ki of 100 nM or above)) |  | A (A represents a value of 3 or above) | E (E represents a pKi value of 7 or below (Ki of 100 nM or above)) | 31.6 to 200 nM | < 1000 nM | A (A represents a value below 5×10^−6 cm/sec) | 0.1 to 1 nM |  |
| C=CC(=O)N1CC(COc2nc(-c3ccc(O)cc3)cn3cncc23)C1 [Example 6, 1-(3-(((6-(4-hydroxyphenyl)imidazo[1,5-a]pyrazin-8-yl)oxy)methyl)azetidin-1-yl)prop-2-en-1-one] | E (E represents a pKi value of 7 or below (Ki of 100 nM or above)) | E (E represents a pKi value of 7 or below (Ki of 100 nM or above)) |  | A (A represents a value of 3 or above) | E (E represents a pKi value of 7 or below (Ki of 100 nM or above)) | 31.6 to 200 nM |  | B (B represents a value between 5×10^−6 and 10×10^−6 cm/sec) | 0.1 to 1 nM |  |
| C=CC(=O)N1CC(COc2cc(-c3ccc(O)cc3)cn3cncc23)C1 [Example 11, 1-(3-(((6-(4-hydroxyphenyl)imidazo[1,5-a]pyridin-8-yl)oxy)methyl)azetidin-1-yl)prop-2-en-1-one] | E (E represents a pKi value of 7 or below (Ki of 100 nM or above)) | E (E represents a pKi value of 7 or below (Ki of 100 nM or above)) |  | A (A represents a value of 3 or above) | E (E represents a pKi value of 7 or below (Ki of 100 nM or above)) | 31.6 to 200 nM | < 1000 nM | A (A represents a value below 5×10^−6 cm/sec) | 0.1 to 1 nM |  |
| C=CC(=O)N1CCC(Oc2cc(-c3ccc(O)cc3)cn3cncc23)C(F)(F)C1 (stereo not drawn) [Example 14, 1-(3,3-difluoro-4-((6-(4-hydroxyphenyl)imidazo[1,5-a]pyridin-8-yl)oxy)piperidin-1-yl)prop-2-en-1-one] | E (E represents a pKi value of 7 or below (Ki of 100 nM or above)) |  | A (A represents a pKi value≥10 (Ki≤0.1 nM)) | A (A represents a value of 3 or above) | E (E represents a pKi value of 7 or below (Ki of 100 nM or above)) | ≤ 31.6 nM |  | B (B represents a value between 5×10^−6 and 10×10^−6 cm/sec) |  | 10 to 100 nM |
